Drawing on patent US4921850A, “3-propenylcephem derivative” (Eisai Co., Ltd., priority 1986, dated 1990), this text covers MIC for twelve molecules.

Holding throughout (assay): Anti-bacterial activity (MIC), agar dilution
Type in all cases: cell-based
In general terms: In agar dilution the substance is mixed into plates at graded concentrations.

One test has as its system Escher. coli NIHJ. The settings on record: Escherichia coli, 18 h, Escher. coli NIHJ; agar dilution, about 10^6 CFU/ml, 18 hours, 37° C.; read-out: MIC. The essentials: (§1)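 Agar dilution; MH broth overnight cultures → ~10^6 CFU/ml; spotted on MH agar with twofold serial drug dilutions; 18 h, 37° C; MIC in μg/ml.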
The subject of the next test is Kleb. pneumoniae EK-6. The settings on record: Klebsiella pneumoniae, EK6, 18 h, Kleb. pneumoniae EK-6; agar dilution, about 10^6 CFU/ml, 18 hours, 37° C.; read-out: MIC. In a few lines:
as §1

For test [1], the system named is Morganella morganii EP-14. The conditions noted are these: Morganella morganii, EP14, 18 h, about 10^6 CFU/ml, 37° C., read-out: MIC. In a few lines: as §1
A further test deals with Pseud. aeruginosa EP-01. The conditions noted are these: Pseudomonas aeruginosa, EP01, 18 h, Pseud. aeruginosa EP-01; agar dilution, about 10^6 CFU/ml, 18 hours, 37° C.; read-out: MIC. In a few lines:
as §1

A further test has as its system Ser. marcescens ES-75. The settings on record: Serratia marcescens, ES75, 18 h, Ser. marcescens ES-75; agar dilution, about 10^6 CFU/ml, 18 hours, 37° C.; read-out: MIC. In a few lines:
as §1

A further test concerns Staph. aureus 209-P. The settings on record: Staphylococcus aureus, 209P, 18 h, Staph. aureus 209-P; agar dilution, about 10^6 CFU/ml, 18 hours, 37° C.; read-out: MIC. In a few lines:
as §1

SMILES strings stand for the structures. Values after ≈ are worked out from the molar mass of the structure shown.

By MIC is commonly meant the smallest concentration in the dilution series that meets the test's criterion for growth inhibition. As for `C[C@H](CO)[N+](C)(C)C/C=C/C1=C(C(=O)[O-])N2C(=O)[C@@H](NC(=O)/C(=N\OCF)c3nsc(N)n3)[C@H]2SC1` [Example 68], the MIC with Escher. coli NIHJ is ≤ 0.025 µg/mL; in the test on Kleb. pneumoniae EK-6, ≤ 0.025 µg/mL; in test [1] it was ≤ 0.025 µg/mL; with Pseud. aeruginosa EP-01 it was 0.8 µg/mL (≈ 1.47 µM); with Ser. marcescens ES-75, ≤ 0.025 µg/mL; in the test with Staph. aureus 209-P it was 0.2 µg/mL (≈ 0.368 µM).

For the molecule `CC(C)(CO)[N+](C)(C)C/C=C/C1=C(C(=O)[O-])N2C(=O)[C@@H](NC(=O)/C(=N\OCF)c3nsc(N)n3)[C@H]2SC1` [Example 69], the MIC was ≤ 0.025 µg/mL in the test with Escher. coli NIHJ; ≤ 0.025 µg/mL with Kleb. pneumoniae EK-6; ≤ 0.025 µg/mL in test [1]; 0.8 µg/mL (≈ 1.43 µM) in the test on Pseud. aeruginosa EP-01; 0.05 µg/mL (≈ 0.0897 µM) in the test with Ser. marcescens ES-75; 0.2 µg/mL (≈ 0.359 µM) in the test on Staph. aureus 209-P.

For `C[N+](C)(C/C=C/C1=C(C(=O)[O-])N2C(=O)[C@@H](NC(=O)/C(=N\OCF)c3nsc(N)n3)[C@H]2SC1)C(CO)(CO)CO` [Example 70], the MIC with Escher. coli NIHJ is ≤ 0.025 µg/mL; in the test with Kleb. pneumoniae EK-6 it was ≤ 0.025 µg/mL; in test [1], ≤ 0.025 µg/mL; in the test with Pseud. aeruginosa EP-01 it was 0.8 µg/mL (≈ 1.36 µM); in the test on Ser. marcescens ES-75, 0.1 µg/mL (≈ 0.17 µM); with Staph. aureus 209-P, 0.1 µg/mL (≈ 0.17 µM).

`C[N+](C)(C/C=C/C1=C(C(=O)[O-])N2C(=O)[C@@H](NC(=O)/C(=N\OCF)c3nsc(N)n3)[C@H]2SC1)CC(=O)NO` [Example 72]: the MIC in the test on Escher. coli NIHJ was ≤ 0.025 µg/mL; in the test with Kleb. pneumoniae EK-6, ≤ 0.025 µg/mL; in test [1] it was ≤ 0.025 µg/mL; in the test with Pseud. aeruginosa EP-01, 0.8 µg/mL (≈ 1.43 µM); with Ser. marcescens ES-75 it was ≤ 0.025 µg/mL; with Staph. aureus 209-P, 0.4 µg/mL (≈ 0.716 µM).

Turning to `C[N+](C)(C/C=C/C1=C(C(=O)[O-])N2C(=O)[C@@H](NC(=O)/C(=N\OCF)c3nsc(N)n3)[C@H]2SC1)CC(=O)NCC(N)=O` [Example 73], the MIC turned out to be 0.05 µg/mL (≈ 0.0834 µM) in the test on Escher. coli NIHJ; 0.05 µg/mL (≈ 0.0834 µM) in the test on Kleb. pneumoniae EK-6; 0.1 µg/mL (≈ 0.167 µM) in test [1]; 1.56 µg/mL (≈ 2.6 µM) in the test on Pseud. aeruginosa EP-01; 0.05 µg/mL (≈ 0.0834 µM) with Ser. marcescens ES-75; 0.4 µg/mL (≈ 0.667 µM) with Staph. aureus 209-P.

In the case of `C[N+](C)(C/C=C/C1=C(C(=O)[O-])N2C(=O)[C@@H](NC(=O)/C(=N\OCF)c3nsc(N)n3)[C@H]2SC1)CC(=O)N(CCO)CCO` [Example 74], the MIC amounted to 0.1 µg/mL (≈ 0.159 µM) with Escher. coli NIHJ; 0.05 µg/mL (≈ 0.0793 µM) in the test on Kleb. pneumoniae EK-6; 0.1 µg/mL (≈ 0.159 µM) in test [1]; 1.56 µg/mL (≈ 2.47 µM) in the test on Pseud. aeruginosa EP-01; 0.4 µg/mL (≈ 0.634 µM) with Ser. marcescens ES-75; 0.8 µg/mL (≈ 1.27 µM) in the test with Staph. aureus 209-P.

Take `C[N+](C)(C/C=C/C1=C(C(=O)[O-])N2C(=O)[C@@H](NC(=O)/C(=N\OCF)c3nsc(N)n3)[C@H]2SC1)CC(=O)NCCO` [Example 75]: the minimal inhibitory concentration (MIC) in the test with Escher. coli NIHJ came out at 0.05 µg/mL (≈ 0.0852 µM); in the test with Kleb. pneumoniae EK-6, 0.05 µg/mL (≈ 0.0852 µM); in test [1] it was 0.05 µg/mL (≈ 0.0852 µM); in the test on Pseud. aeruginosa EP-01 it was 1.56 µg/mL (≈ 2.66 µM); with Ser. marcescens ES-75 it was 0.2 µg/mL (≈ 0.341 µM); with Staph. aureus 209-P, 0.4 µg/mL (≈ 0.682 µM).

For the molecule `CN(C)CCC[N+](C)(C)C/C=C/C1=C(C(=O)[O-])N2C(=O)[C@@H](NC(=O)/C(=N\OCF)c3nsc(N)n3)[C@H]2SC1` [Example 77], the MIC with Escher. coli NIHJ was 0.2 µg/mL (≈ 0.35 µM); with Kleb. pneumoniae EK-6, 0.2 µg/mL (≈ 0.35 µM); in test [1], 0.4 µg/mL (≈ 0.701 µM); in the test on Pseud. aeruginosa EP-01, 3.13 µg/mL (≈ 5.48 µM); in the test on Ser. marcescens ES-75 it was 0.2 µg/mL (≈ 0.35 µM); in the test with Staph. aureus 209-P it was 0.4 µg/mL (≈ 0.701 µM).

`CN(C)CC(O)C[N+](C)(C)C/C=C/C1=C(C(=O)[O-])N2C(=O)[C@@H](NC(=O)/C(=N\OCF)c3nsc(N)n3)[C@H]2SC1` (stereo partly drawn) [Example 78]: the MIC came to 0.2 µg/mL (≈ 0.341 µM) in the test with Escher. coli NIHJ; 0.2 µg/mL (≈ 0.341 µM) in the test with Kleb. pneumoniae EK-6; 0.2 µg/mL (≈ 0.341 µM) in test [1]; 3.13 µg/mL (≈ 5.34 µM) in the test on Pseud. aeruginosa EP-01; 0.2 µg/mL (≈ 0.341 µM) in the test with Ser. marcescens ES-75; 0.4 µg/mL (≈ 0.682 µM) in the test with Staph. aureus 209-P.

Regarding `Cc1c(CCO)sc[n+]1C/C=C/C1=C(C(=O)[O-])N2C(=O)[C@@H](NC(=O)/C(=N\OCF)c3nsc(N)n3)[C@H]2SC1` [Example 81], the MIC in the test with Escher. coli NIHJ is ≤ 0.025 µg/mL; with Kleb. pneumoniae EK-6, ≤ 0.025 µg/mL; in test [1], ≤ 0.025 µg/mL; with Pseud. aeruginosa EP-01, 1.56 µg/mL (≈ 2.67 µM); with Ser. marcescens ES-75 it was ≤ 0.025 µg/mL; in the test with Staph. aureus 209-P, 0.2 µg/mL (≈ 0.343 µM).

As for `NC(=O)Cc1cccc[n+]1C/C=C/C1=C(C(=O)[O-])N2C(=O)[C@@H](NC(=O)/C(=N\OCF)c3nsc(N)n3)[C@H]2SC1` [Example 82], the MIC is ≤ 0.025 µg/mL in the test with Escher. coli NIHJ; ≤ 0.025 µg/mL in the test with Kleb. pneumoniae EK-6; ≤ 0.025 µg/mL in test [1]; 1.56 µg/mL (≈ 2.71 µM) in the test on Pseud. aeruginosa EP-01; 0.05 µg/mL (≈ 0.0867 µM) in the test on Ser. marcescens ES-75; 0.4 µg/mL (≈ 0.694 µM) in the test on Staph. aureus 209-P.

Regarding `Nc1nc(/C(=N/OCF)C(=O)N[C@@H]2C(=O)N3C(C(=O)[O-])=C(/C=C/C[n+]4ccc(C(=O)N(CCO)CCO)cc4)CS[C@H]23)ns1` [Example 83], the minimal inhibitory concentration (MIC) in the test with Escher. coli NIHJ was 0.05 µg/mL (≈ 0.0768 µM); with Kleb. pneumoniae EK-6, ≤ 0.025 µg/mL; in test [1], ≤ 0.025 µg/mL; in the test with Pseud. aeruginosa EP-01 it was 3.13 µg/mL (≈ 4.81 µM); in the test on Ser. marcescens ES-75, 0.1 µg/mL (≈ 0.154 µM); in the test with Staph. aureus 209-P it was 0.8 µg/mL (≈ 1.23 µM).
